Values joined by “and” are separate entries in the source; they are usually repeats but may differ in a detail not shown here. Identical values can stand only once.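 Dose response: 5 concentrations. Exposure: 48 h. Format: 96-well plates. Endpoint: linear interpolation; highest concentration if not reached. GI50 is the concentration that inhibits growth by half.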 Active and inactive are the calls of the source. Rule as the data show it: active = GI50 up to about 1.1 µM and inactive = higher. Residues, ends and D or L forms follow the SMILES beside them. *: point of attachment. Boc = CC(C)(C)OC(=O)*
How the values were obtained:
Experiment in all cases: NCI tumour cell line growth inhibition, 48 h
[1] = test system: BT-549
[2] = test system: T47D
[3] = test system: DLD-1
[4] = test system: DMS-114
[5] = test system: DMS-273
[6] = test system: HOP-18
[7] = test system: KM-20L2
[8] = test system: LXFL 529

Structure (SMILES) | GI50 [1] | GI50 [2] | also measured
CCOC(=O)c1cc2c([nH]1)c(OC(C)=O)cc1c2ccn1Cc1ccccc1 | > 100 µM (inactive) | > 100 µM (inactive) | 
O=C1CC(NC(=O)C(F)(F)F)c2c1csc2Br (stereo unspecified) | 44.1 µM (inactive) | 3.4 µM (inactive) | 
C=C1C[C@@H](O)[C@@H](Br)C(C)(C)[C@@]12C=CC(=O)CC2 | > 100 µM (inactive) | > 100 µM (inactive) | 
CC(=O)OC1CC2C(C)(C)C(=O)C=C[C@]2(C)C2CCC3(C)C(c4ccoc4)[C@@H](O)[C@H]4O[C@]43[C@]12C (stereo partly specified) |  |  | GI50 [3]: 20.4 µM (inactive); GI50 [4]: 20.1 µM (inactive); GI50 [5]: 22.1 µM (inactive); GI50 [6]: 21.6 µM (inactive); GI50 [7]: 18.5 µM (inactive); GI50 [8]: 18.5 µM (inactive)
CC(/C=C/C=C\C=C\C=C(/C)C(=O)NC(C)CO)=C\C(C)C(O)/C(C)=C/C(C)CCc1ccccc1 (stereo unspecified) | 15.2 µM (inactive) | 3.61 µM (inactive) | GI50 [3]: 13.7 µM (inactive); GI50 [4]: < 0.01 µM (active); GI50 [5]: 1.87 µM (inactive); GI50 [6]: 10.8 µM (inactive); GI50 [7]: 11.1 µM (inactive); GI50 [8]: 3.18 µM (inactive)
C=CCN1COc2c(cc3c4c(cccc24)C(=O)O3)C1 |  |  | GI50 [3]: 25.4 µM (inactive); GI50 [4]: 17.9 µM (inactive); GI50 [5]: 38.6 µM (inactive); GI50 [6]: > 100 µM (inactive); GI50 [7]: 24.3 µM (inactive); GI50 [8]: 18.2 µM (inactive)
Nc1c(C(=O)O)nnc2cc(Cl)c(Cl)cc12 | 72.6 µM (inactive) | > 100 µM (inactive) | 
O=C1/C(=C/c2cccnc2)SC(=S)N1Cc1ccco1 | 27.2 µM (inactive) | 11.7 µM (inactive) | 
O=C1O/C(=C\c2ccc(O)c(Br)c2)C(c2ccc(O)cc2)=C1Cl |  | 58.3 µM (inactive) | 
O=c1c(-c2c(-c3ccccc3)oc3ccc(Cl)cc3c2=O)c(-c2ccccc2)oc2ccc(Cl)cc12 |  | > 100 µM (inactive) | 
Cc1ccc(C2=C(Cl)C(=O)C(c3ccc(C)cc3)=C(Cl)C2=O)cc1 | > 100 µM (inactive) | > 100 µM (inactive) | 
COC(=O)C(Cc1ccc2c(c1)CCC2)Cc1ccc2c(c1)CCC2 | 27.1 µM (inactive) | 20.9 µM (inactive) | 
O=C1C(N2CCN(c3ccccn3)CC2)=C(Cl)C(=O)c2ncccc21 | > 10 µM (inactive) | 2.06 µM (inactive) | 
[N-]=[N+]=Nc1cc(=O)[nH]nc1-c1ccccc1 | > 100 µM (inactive) | > 100 µM (inactive) | 
N=C/N=C/C(=S)O[C@@H]1C(=O)N2CCC[C@@]23CCCC[C@@H]13 |  | > 12.5 µM (inactive) | 
COC(=O)[C@]1(C)CC[C@]2(C)CC[C@]3(C)C4[C@H]5Oc6c(cc7c(c6C)CCC6[C@@]7(C)CC[C@@]7(C)C8[C@](C)(CCC[C@@]8(C)C(=O)OC)CC[C@]67C)O[C@H]5c5c(cc6c(c5C)O[C@@]5(C)C7=CC=C8[C@@](C)(CC[C@@]9(C)[C@@H]%10C[C@](C)(C(=O)OC)CC[C@]%10(C)CC[C@]89C)C7=CC(=O)[C@@]5(O)O6)[C@]4(C)CC[C@@]3(C)C2C1 (stereo partly specified) | 7.03 µM (inactive) | 2.11 µM (inactive) | 
COc1ccc(N2C(=O)C3c4[nH]c5cccc(Cl)c5c4C4CCC(C(C)(C)C)CC4C3C2=O)cc1 (stereo unspecified) | > 100 µM (inactive) | > 100 µM (inactive) | 
Cn1cc2c3ccccc3nc-2c2ccccc21 [ISOCRYPTOLEPINE] | 3.26 µM (inactive) | 2.07 µM (inactive) | 
CC(C)(C)OC(=O)N1CCc2[nH][nH]c(=O)c2C1 | > 100 µM (inactive) |  | 
O=[PH](O)c1cc2c3ccccc3ccc2c2ccccc12 |  |  | GI50 [3]: > 100 µM (inactive); GI50 [4]: > 100 µM (inactive); GI50 [5]: > 100 µM (inactive); GI50 [6]: > 100 µM (inactive); GI50 [7]: > 100 µM (inactive); GI50 [8]: > 100 µM (inactive)
COC(=O)c1cc(NC(=O)Cc2c[nH]c3ccccc23)cn1C | 57.5 µM (inactive) | > 100 µM (inactive) | 

Structure (SMILES) | GI50 [1] | GI50 [2] | also measured
COc1cc2c(c3oc4c(O)cccc4c(=O)c13)CC(C(C)(O)CCl)O2 (stereo unspecified) | 3.85 µM (inactive) | 2.8 µM (inactive) | 
CC1(C)N=C(N)N=C(N)N1c1cccc(OCCOc2ccc([N+](=O)[O-])cc2)c1 | 12.9 µM (inactive) |  | 
CSC12c3cc(C)n(-c4ccc(I)cc4)c3CC(C)(C)CN1C(=O)C2Oc1ccccc1 (stereo unspecified) | > 100 µM (inactive) | 5.97 µM (inactive) | 
Cc1cc2c(cc1Cl)SC(N/N=C(\N)c1ccc(Cl)cc1)=NS2(=O)=O | 46.7 µM (inactive) | 53.3 µM (inactive) | 
O=C1CSC(c2ccccc2[N+](=O)[O-])N1c1ccc(-c2ccc(-n3c(-c4ccccc4)nc4ccccc4c3=O)cc2)cc1 (stereo unspecified) | > 100 µM (inactive) | 29.1 µM (inactive) | 
CCCC[C@H]1CCN2C[C@@H](O)[C@@H](O)[C@H]2[C@@H]1O | > 100 µM (inactive) | > 100 µM (inactive) | 
CSC1=NN=C(SC)NN1 | 0.151 µM (active) | 0.142 µM (active) | 
CCOC(=O)c1oc2ccc(OC)c3c2c1CCC3 |  |  | GI50 [3]: 64.9 µM (inactive); GI50 [4]: > 100 µM (inactive); GI50 [5]: > 100 µM (inactive); GI50 [8]: 65.6 µM (inactive)
C[n+]1c(-c2ccc(/C=N/NC(=O)C(=O)N/N=C/c3ccc(-c4cn5ccsc5[n+]4C)cc3)cc2)cn2ccsc21 |  | > 100 µM (inactive) | 
C[C@@H]1OCC(O)C([C@H]2OC(c3ccccc3)=N[C@H]2CO)O1 (stereo partly specified) |  | > 100 µM (inactive) | 
Cc1ccc2c(c1)CNc1ccc(C)cc1CN2 |  |  | GI50 [3]: > 100 µM (inactive); GI50 [4]: > 100 µM (inactive); GI50 [5]: > 100 µM (inactive); GI50 [6]: > 100 µM (inactive); GI50 [8]: > 100 µM (inactive)
CC(C)N(C(=O)C12C3C4C5C3C1(C(=O)N(C(C)C)C(C)C)C5C42)C(C)C (stereo unspecified) |  |  | GI50 [3]: > 45.3 µM (inactive); GI50 [4]: > 44.5 µM (inactive); GI50 [5]: > 41.7 µM (inactive); GI50 [6]: > 100 µM (inactive); GI50 [7]: > 100 µM (inactive); GI50 [8]: > 80.4 µM (inactive)
CCOC(=O)CCC1(C(=O)O[C@@H]2C[C@H](C)CC[C@H]2C(C)C)CCCCC1=O (stereo partly specified) | > 100 µM (inactive) | 34.8 µM (inactive) | 
CCOC(=O)c1nc2c(Cl)c3ncccc3cc2[nH]c1=O | 21.5 µM (inactive) |  | 
COC1OC(C(=O)CP(=O)(OC)OC)C(OCc2ccccc2)C(OCc2ccccc2)C1OCc1ccccc1 (stereo unspecified) | 17.9 µM (inactive) and 19.5 µM (inactive) | 18 µM (inactive) and 15.5 µM (inactive) | 
COc1ccc(OC)c2sc(N3C(=O)/C(=C/c4ccc(SC)cc4)N=C3c3ccccc3)nc12 | 29.4 µM (inactive) | 26.3 µM (inactive) | 
CN1C(=O)C(=CN)C(=O)N(C)C1=O |  |  | GI50 [3]: > 100 µM (inactive); GI50 [4]: > 100 µM (inactive); GI50 [6]: > 100 µM (inactive); GI50 [7]: > 100 µM (inactive)
Cc1cn(C2CC(COCc3ccccc3)N(CCO[Si](C)(C)C(C)(C)C)O2)c(=O)[nH]c1=O (stereo unspecified) |  | 13.5 µM (inactive) | 
NC(CCc1nc(-c2ccccc2)cs1)C(=O)O (stereo unspecified) |  |  | GI50 [3]: > 100 µM (inactive); GI50 [4]: > 100 µM (inactive); GI50 [5]: > 100 µM (inactive); GI50 [6]: > 100 µM (inactive); GI50 [8]: > 100 µM (inactive)
CC(=O)/C=C1\CC(=O)Nc2ccccc2N1 |  |  | GI50 [3]: > 100 µM (inactive); GI50 [4]: > 100 µM (inactive); GI50 [7]: > 100 µM (inactive); GI50 [8]: > 100 µM (inactive)
CN(C)CCCNC(=O)CNC(=O)c1cc(NC(=O)c2cc(NC(=O)c3cc(NC(=O)CCNC(=O)c4cc(NC(=O)c5cc(NC(=O)c6nccn6C)cn5C)cn4C)cn3C)cn2C)cn1C |  | > 100 µM (inactive) | 

Structure (SMILES) | GI50 [1] | GI50 [2] | also measured
C=CCc1cc(-c2cc(CC=C)c(O)c(CNCCCl)c2)cc(CNCCCl)c1O |  |  | GI50 [3]: 21.5 µM (inactive); GI50 [4]: 21.1 µM (inactive); GI50 [7]: 17.5 µM (inactive); GI50 [8]: 15.1 µM (inactive)
Cc1nc(Nc2nc3ccccc3[nH]2)nc(Cl)c1CCCl | > 100 µM (inactive) | > 100 µM (inactive) | 
CC[P+]1(c2ccccc2)[C@@H](C)CC[C@@H]1C | > 100 µM (inactive) | > 100 µM (inactive) | 
COS(C)(=O)=O [METHANESULFONIC ACID METHYL ESTER] | > 2 µM (inactive) | > 2 µM (inactive) | 
Oc1c(C2=NNC(c3cccs3)C2)ccc2ccccc12 (stereo unspecified) | 32.5 µM (inactive) | 4.42 µM (inactive) | 
C=C(C)C1CCC2(C)C1CCC1(C)C2CCC2C3(C)C4OC(OC4=O)C(C)(C)C3CCC21C (stereo unspecified) | > 100 µM (inactive) | 64.6 µM (inactive) | 
CC(C)=CC1CC(C)C2(CCC3(C)CC4C(C(=O)CC4(C)O)/C(C=O)=C\CC32)O1 (stereo unspecified) | 0.177 µM (active) | 0.0574 µM (active) | 
CC(=O)c1cc2c(s1)C(=O)c1ccsc1C2=O | 0.182 µM (active) | 1.31 µM (inactive) | 
Cc1nc2c3c(ccc2nc1O)C(=O)c1ccccc1C3=O |  |  | GI50 [3]: 31.8 µM (inactive); GI50 [4]: 44.8 µM (inactive); GI50 [6]: 66.7 µM (inactive); GI50 [7]: > 100 µM (inactive); GI50 [8]: 70 µM (inactive)
Cc1ccc(S(=O)(=O)N2C[C@](O)(c3ccccc3)[C@H]2C)cc1 |  | 47.9 µM (inactive) | 
COc1ccc(C(C#N)NC23CC4CC(CC(C4)C2)C3)cc1 (stereo unspecified) | > 100 µM (inactive) | > 100 µM (inactive) | 
S=c1[nH]c2c(Cl)c(Cl)c(Cl)c(Cl)c2[nH]1 | 17.9 µM (inactive) | 52.5 µM (inactive) | 
N#CCCN(CCN(CCN(C(=O)Nc1ccccc1)c1ccccc1)C(=O)Nc1ccccc1)C(=O)Nc1ccccc1 | > 100 µM (inactive) | 48.4 µM (inactive) | 
COC1=CC(=O)[C@H]2[C@H](C)C(c3ccccc3)[C@@]2(C)C1=O (stereo partly specified) |  |  | GI50 [3]: > 100 µM (inactive); GI50 [5]: > 100 µM (inactive); GI50 [8]: > 100 µM (inactive)
Cc1cs/c(=N\C(P(=O)(O)O)P(=O)(O)O)n1C | > 100 µM (inactive) |  | 
CC(=O)OCC1OC(n2c(=O)[nH]c(=O)c3sccc32)C(Br)C1OC(C)=O (stereo unspecified) | > 100 µM (inactive) |  | 
CC1=C(C(=O)CC(=O)C(=O)Nc2ccc(C)c(C)c2)Sc2ccccc2N1 |  |  | GI50 [3]: > 100 µM (inactive); GI50 [4]: > 100 µM (inactive); GI50 [5]: > 100 µM (inactive); GI50 [6]: > 100 µM (inactive); GI50 [7]: > 100 µM (inactive); GI50 [8]: > 100 µM (inactive)
CC1=CC(=O)N(n2c(-c3ccccc3)n[nH]c2=O)C1=O | > 100 µM (inactive) | > 100 µM (inactive) | 
CCOC(=O)/C(C#N)=C1\c2c([nH]c(=S)[nH]c2=O)Oc2ccc3ccccc3c21 | > 100 µM (inactive) | 34.7 µM (inactive) | 
CC(C)(C)OC(=O)NC(Cc1ccc(O)cc1)C(=O)NC(CCCCN)C(=O)O (stereo not drawn) (Boc-Tyr-Lys-OH; configuration not given here) | 20 µM (inactive) | 15.3 µM (inactive) | 
O=C1C(Cl)C(c2ccccc2)N1n1cnc2ccccc2c1=O (stereo unspecified) |  |  | GI50 [3]: > 100 µM (inactive); GI50 [4]: > 100 µM (inactive); GI50 [5]: > 100 µM (inactive); GI50 [6]: 26.5 µM (inactive); GI50 [7]: > 100 µM (inactive); GI50 [8]: > 100 µM (inactive)

Source: ChEMBL document CHEMBL1201862, “PubChem BioAssay data set” (2004)
